Experimental data taken from patent US12208108B2, “Drug targets of delayed aging and human brain diseases” (Texas Tech University System, priority 2016, dated 2025).

Key:
SHSY5Y cells = experiment: Immunoblotting analysis of mitochondrial, synaptic proteins and Aβ; type: cell-based, Human
Excerpt: Immunoblotting analysis. To determine the effects of Aβ on mitochondrial proteins and the useful effects of DDQ at the protein level, the inventors quantified mitochondrial proteins in five independent treatments of cells with Aβ, DDQ, Aβ+DDQ and DDQ+Aβ.
DDQ reduces Aβ and Drp1 levels. To determine whether DDQ reduces Aβ and Drp1 levels, the inventors conducted immunoblotting analysis, in cells treated with DDQ, Aβ+DDQ and DDQ+Aβ.
FIG. 3 illustrates the experimental strategy of the cell culture work and including treatments. The cells were grown in a medium (1:1 DMEM and F12, 10% FBS, lx penicillin, and streptomycin) at 37° C. in a humified incubator with a 5% CO2 environment. After seeding were allowed to grow for 24-48 hrs or until 80% confluence in six-well plates and used for experiments. The inventors used five different groups of cells—(1) untreated SHSY5Y cells; (2) SHSY5Y cells treated with DDQ (250 nM final concentration) for 24 hrs; (3) SHSY5Y cells incubated with Aβ peptide 1-42 (20 uM final concentration) for 6 hrs; (4) SHSY5Y cells treated Aβ for 6 hrs+DDQ for 24 hrs and (5) SHSY5Y cells treated DDQ for 24 hrs and Aβ for 6 hrs. Half a million SHSY5Y cells were suspended per well into six-well plates. The inventors used Aβ peptide 1-42 and DDQ 250 nM in the experiments. After treatments, the inventors harvested cells, conducted experiments to measure the levels mRNA using Sybr-Green based real-time RT-PCR, proteins using immunoblotting and immunofluorescence analysis and cell viability using MTT assay. The inventors counted the number of mitochondria by electron microscopy.

[1] = target: T1, colocalization of Drp1 and Aβ (Homo sapiens, UniProt O00429); experiment: Double-labeling immunofluorescence analysis of Drp1 and Aβ; type: cell-based
T1 construct: SHSY5Y cells incubated with Aβ peptide 1-42 (20 uM final concentration); Anaspec (Aβ 1-42 peptide); host or cells: SHSY5Y human neuroblastoma cells
T1 sequence (O00429 whole entry): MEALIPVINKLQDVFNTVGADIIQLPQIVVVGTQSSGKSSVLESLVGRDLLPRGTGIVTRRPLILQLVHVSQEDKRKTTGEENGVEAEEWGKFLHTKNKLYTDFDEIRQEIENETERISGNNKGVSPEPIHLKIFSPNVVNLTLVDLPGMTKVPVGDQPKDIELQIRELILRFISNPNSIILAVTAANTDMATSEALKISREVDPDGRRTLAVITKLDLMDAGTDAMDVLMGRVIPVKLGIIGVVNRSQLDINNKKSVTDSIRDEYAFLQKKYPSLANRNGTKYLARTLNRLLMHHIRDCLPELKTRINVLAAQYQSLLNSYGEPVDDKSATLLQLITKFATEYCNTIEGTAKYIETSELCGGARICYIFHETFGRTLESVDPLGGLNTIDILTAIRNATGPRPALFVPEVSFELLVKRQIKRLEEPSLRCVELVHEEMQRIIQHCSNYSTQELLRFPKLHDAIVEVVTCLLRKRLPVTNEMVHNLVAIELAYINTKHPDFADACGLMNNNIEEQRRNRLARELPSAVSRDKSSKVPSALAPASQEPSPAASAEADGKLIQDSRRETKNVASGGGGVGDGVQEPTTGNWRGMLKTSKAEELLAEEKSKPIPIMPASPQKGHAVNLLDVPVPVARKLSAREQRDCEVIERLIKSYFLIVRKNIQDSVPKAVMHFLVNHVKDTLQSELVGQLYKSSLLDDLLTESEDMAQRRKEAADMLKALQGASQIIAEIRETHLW
Method: Double-labeling immunofluorescence analysis of Drp1 and Aβ. To determine whether Drp1 localizes and interacts with Aβ, the inventors conducted double-labeling analysis of Drp1 and Aβ in DDQ pre-treated, post-treated and untreated, Aβ incubated cells.
Double labeling immunofluorescence analysis of Drp1 and Aβ. To determine the interaction between Drp1 and Aβ, the inventors conducted double-labeling immunofluorescence analysis, using an anti-Drp1 antibody (rabbit polyclonal, Santa Cruz Biotechnology) and 6E10 (Covance). As described earlier, the sections from AD patients and control subjects were deparaffinized and treated with sodium borohydrate to reduce autofluorescence.
For the first labeling, the Aβ incubated (DDQ pre-treated, post-treated and untreated) cells were incubated overnight with the anti-Drp1 antibody (1:200) at room temperature. On the day after this primary antibody incubation, the sections were washed with 0.5% Triton in PBS. They were then incubated with a secondary biotinylated anti-rabbit antibody at a 1:400 dilution (Vector Laboratories, Burlingame, Calif., USA) or a secondary biotinylated anti-mouse antibody (1:400) for 1 h at room temperature. They were incubated for 1 h with labeled streptavidin, an HRP solution (Molecular Probes). […]

[2] = Aβ + DDQ (Aβ1-42 20 μM 6 hrs, then DDQ 24 hrs) vs untreated cells
[3] = Aβ + DDQ (Aβ1-42 6 hrs, then DDQ 24 hrs) vs Aβ treated cells
[4] = DDQ 250 nM 24 hrs vs untreated cells
[5] = DDQ + Aβ (DDQ 24 hrs, then Aβ1-42 6 hrs) vs Aβ treated cells

In the case of CCOP(=O)(OCC)C(NCCc1ccc(O)c(O)c1)c1ccnc2ccccc12 (stereo not shown) [DDQ, diethyl(3,4-dihydroxyphenethylamine)(quinolin-4-yl)methylphosphonate], the Drp1 protein level (SHSY5Y cells; [2]) is reported as “reduced”, the Fis1 protein level (SHSY5Y cells; [2]) is reported as “reduced” and the Mfn1 protein level (SHSY5Y cells; [2]) is reported as “significantly increased”. For the same compound, the PSD95 protein level (SHSY5Y cells; [2]) was “significantly increased”, the synaptophysin protein level (SHSY5Y cells; [2]) was “significantly increased” and the Drp1 protein level (SHSY5Y cells; [3]) was “significantly reduced levels”. The Mfn1 protein level (SHSY5Y cells; [3]) was “increased”, the Mfn2 protein level (SHSY5Y cells; [3]) was “increased” and the Nrf1 protein level (SHSY5Y cells; [3]) was “increased”. For the same compound, the Nrf2 protein level (SHSY5Y cells; [3]) was “increased”, the PSD95 protein level (SHSY5Y cells; [3]) was “increased” and the TFAM protein level (SHSY5Y cells; [3]) was “increased”. The synaptophysin protein level (SHSY5Y cells; [3]) was “increased”, the “4 kDa Aβ levels” value (SHSY5Y cells; Aβ + DDQ (Aβ1-42 6 hrs, then DDQ 24 hrs) vs cells treated with Aβ alone) was “reduced levels” and the Drp1 protein level (SHSY5Y cells; [4]) was “significantly reduced”. The Fis1 protein level (SHSY5Y cells; [4]) was “significantly reduced”, the Mfn2 protein level (SHSY5Y cells; [4]) was “significantly increased” and the “Mitochondrial biogenesis protein levels” value (SHSY5Y cells; [4]) was “significantly increased”. For the same compound, the Drp1 protein level (SHSY5Y cells; [5]) was “significantly reduced levels”, the Fis1 protein level (SHSY5Y cells; [5]) was “significantly reduced levels” and the Mfn1 protein level (SHSY5Y cells; [5]) was “increased”. The Mfn2 protein level (SHSY5Y cells; [5]) was “increased”, the Nrf1 protein level (SHSY5Y cells; [5]) was “significantly increased levels” and the Nrf2 protein level (SHSY5Y cells; [5]) was “significantly increased levels”. The PSD95 protein level (SHSY5Y cells; [5]) was “increased”, the TFAM protein level (SHSY5Y cells; [5]) was “significantly increased levels” and the synaptophysin protein level (SHSY5Y cells; [5]) was “increased”. For the same compound, the “4 kDa Aβ levels” value (SHSY5Y cells; DDQ + Aβ (DDQ 24 hrs, then Aβ1-42 6 hrs) vs cells treated with Aβ alone) was “reduced levels”, the Drp1 protein level (SHSY5Y cells; DDQ + Aβ (DDQ 24 hrs, then Aβ1-42 6 hrs) vs untreated cells) was “Decreased levels” and the “co-localization of Drp1 with Aβ” value ([1]; DDQ post-treated Aβ incubated cells vs Aβ incubated cells alone) was “reduced co-localization”. The “co-localization of Drp1 with Aβ” value ([1]; DDQ pre-treated Aβ incubated cells vs Aβ incubated cells alone) was “reduced co-localization”.
